{"source": "paper PMC3375340", "about": "(Journal of Medicinal Chemistry, 2012)", "key": {"[1]": {"tested_on": "M. tuberculosis H37Rv RFPr", "assay": "microbe, parasite or virus in culture", "format": "cell-based", "details": "Mycobacterium tuberculosis"}, "[2]": {"tested_on": "M. tuberculosis H37Rv INHr", "assay": "microbe, parasite or virus in culture", "format": "cell-based", "details": "Mycobacterium tuberculosis"}}, "data": [{"smiles": "CCCCCC[C@H](CN1CCC(COc2cccc(C(=NOC)c3ccc(Cl)cc3)c2)CC1)OC(N)=O", "note": "[(R)-13, (R)-1-(4-((3-((4-Chlorophenyl)(methoxyimino)methyl)phenoxy)methyl)piperidin-1-yl)octan-2-yl carbamate]", "values": [{"measurement": "MIC", "setting": "[1]", "result": 1.51, "unit": "µg/mL"}, {"measurement": "MIC", "setting": "[2]", "result": 1.52, "unit": "µg/mL"}]}]}
